Assays:
[1] = tested on: M. abscesses (ATCC 19977); assay: MIC against mycobacterium in Middlebrook 7H9 broth; assay type: cell-based, M. abscessus
Protocol: We also examined non-tuberculous mycobacteria (NTM). These are opportunistic pathogens that are rising in clinical significance due to their increasing prevalence and treatment difficulty. The membrane of Mycobacterium is inherently a greater antibiotic permeability barrier due to its high lipid content relative to other pathogens and long-tailed mycolic acids that contributed to its high lipophilic character. The antimicrobial activity of the TPP analogues were also evaluated against Mycobacterium in Middlebrook 7H9 broth.

[2] = tested on: A549 (lung epithelial cells); assay: Cytotoxicity against mammalian cell line; assay type: cell-based
Protocol: The cytotoxicity of the TPP COEs was also tested against a mammalian cell line (A549).

[3] = tested on: SA; assay: MIC in physiological-mimicking environments (MHB); assay type: cell-based, S. aureus
Excerpt: (§1) The complexities of the physiological environment often influence drug activity, particularly when cations in solution are implicated in their oligomerization-dependent mechanisms of action, such as for daptomycin. Binding of free drug to plasma proteins effectively reduces the available free concentration of the drug capable of killing bacteria, resulting in lower observable activity. We tested MIC values of DM4P and DM6P in the presence of human serum albumin (40 g L^−1) and high salt concentrations (Table 4). Under these conditions, the antimicrobial activity was minimally affected by these environmental factors, with MICs remaining within a 2-fold level.

[4] = tested on: PA; assay: MIC in physiological-mimicking environments (MHB); assay type: cell-based, P. aeruginosa
Excerpt: as §1

[5] = tested on: MRSA; assay: Resistance development by serial passaging at 0.5× MIC; assay type: cell-based, S. aureus
Protocol: (§2) The non-specific action of membrane-active antibiotics lends itself to minimal development of resistance development due to the large metabolic burden involved, unlike traditional antibiotics with a well-defined enzymatic target. Based on this premise, we passaged bacteria incubated with DM6P, or ciprofloxacin (control), at 0.5× MIC to investigate the adaptation of bacteria towards external antibiotic stress. As a control, treatment of MRSA with ciprofloxacin gave rise to antibiotic-resistant mutants within 4 passages, see FIG. 4a. […] Combined with its broad spectrum of activity, this feature opens opportunities for the use of COE antimicrobial agents to address polymicrobial infections with a lower rate of emerging antibiotic resistance.

[6] = tested on: P. aeruginosa; assay: as above; assay type: cell-based
Protocol: as §2

[7] = tested on: MRSA; assay: Propidium iodide influx assay; assay type: cell-based, S. aureus; conditions: 0.5 to 2 μg mL^−1 (half to twice the MIC)
Excerpt: (§3) Another hallmark of cytoplasmic membrane damage is an enhanced permeability towards small molecules. Propidium iodide (PI) is a membrane-impermeant organic dye that can be used to study potential mechanisms of action of antibiotics due to its enhanced fluorescence intensity upon binding to intracellular DNA. Treatment with molecules that cause membrane perturbations enable rapid influx of the dye, resulting in an increase in fluorescence emission that can be monitored over time. […] This difference hints at two plausible mechanisms of action that are concentration dependent. Similar observations have been made for tobramycin, where a protein inhibition mode of action at lower concentrations (<4 μg mL^−1) is supplanted by disruption of the outer membrane at higher concentrations (8 μg mL^−1).
(§4) The assay was performed according to a modified reported protocol.^4 Briefly, the corresponding bacteria was collected from mid-log cultures by centrifugation (7000 rpm, 10 minutes) and washed thrice with PBS. The pellet was then resuspended in the same buffer and diluted to an optical density of 2 by extrapolation. […] Fluorescence intensity was measured over time in a plate reader with an excitation wavelength of 525 nm and emission wavelength of 620 nm. Fluorescence signals were measured every 30 seconds and carried out in triplicate.

[8] = tested on: PAO1; assay: Propidium iodide influx assay; assay type: cell-based, P. aeruginosa; conditions: PAO1, 2 to 8 μg mL^−1 (half to twice the MIC)
Excerpt: as §3, §4

[9] = tested on: PAO1; assay: Live-dead staining (SYTO-9/PI) fluorescence microscopy; assay type: cell-based, P. aeruginosa; conditions: PAO1, 16 μg mL^−1 for 30 minutes
Protocol: Membrane damage induced by COE treatment was also confirmed by fluorescence microscopy. A combination of SYTO-9 and PI is commonly employed as a live-dead stain to distinguish cells with permeabilized membranes. […] Combined with PI, the contrast between the colours is employed as a visual indicator of membrane damage. PAO1 cells exposed to 16 μg mL^−1 of DM6P for 30 minutes were subsequently stained with both dyes and imaged directly.
Cell membrane integrity was determined using LIVE/DEAD™ BacLight™ bacterial viability kit L7007 (ThermoFisher, USA) according to the manufacturer's protocol. Bacteria cells were collected from mid-log cultures by centrifugation (7000 rpm, 10 minutes). The media was removed, and the bacteria was washed with PBS twice and diluted to a concentration of about 1×10^7 CFU per mL. […] A mixture of the dyes SYTO-9 and PI dissolved in DMSO were added to the suspension at final concentrations of 5 μM and 30 μM respectively. The bacteria were then incubated in the dark for 15 min. Samples were prepared by aliquoting 5 μl onto a clean glass slide, trapped with an 18 mm coverslip and imaged on an epifluorescence microscope (Leica Thunder Imager).

[10] = phosphate-buffered saline; below 10 μg mL^−1 estimated by turbidimetric screening
Protocol: The solubility of all the TPP derivatives was determined in phosphate-buffered saline (PBS) (Table S3).

[11] = mice
Protocol: At the end-point, mice were sacrificed and the individual organs and blood samples were collected. Tissues were fixed in 10% neutral-buffered formalin (NBF) for 48 hours and subjected to H&E staining and examination. Clinical blood biomarkers were analysed with a Pointcare® cM4 Blood Chemistry Analyzer (Tianjin MNCHIP Technologies Co., Ltd) according to the manufacturer's protocol.

[12] = 0.25 mg kg^−1, blood after 14 days, mean ± s.d. (n = 3)

Compound: COc1cc(/C=C/c2ccc(OCCCCCC[P+](c3ccccc3)(c3ccccc3)c3ccccc3)c(OC)c2)ccc1OCCCCCC[P+](c1ccccc1)(c1ccccc1)c1ccccc1.[I-].[I-] [DM6P]
- MIC M. abscesses [1]: 8 µg/mL
- IC50 [2]: 11 µg/mL
- MIC CaCl2 ([3]; CaCl2 1 mM): 1 µg/mL
- MIC MgCl2 ([3]; MgCl2 1.25mM): 1 µg/mL
- MIC NaCl ([3]; NaCl 300 mM): 1 µg/mL
- MIC HSA ([3]; human serum albumin 40 g L^−1): 1 µg/mL
- MIC — ([3]; no additive): 1 µg/mL
- MIC CaCl2 ([4]; CaCl2 1 mM): 4 µg/mL
- MIC MgCl2 ([4]; MgCl2 1.25mM): 4 µg/mL
- MIC NaCl ([4]; NaCl 300 mM): 8 µg/mL
- MIC HSA ([4]; human serum albumin 40 g L^−1): 8 µg/mL
- MIC — ([4]; no additive): 4 µg/mL
- resistance development [5]: did not induce any observable resistant mutants
- resistance development [6]: did not induce any observable resistant mutants
- PI influx [7]: PI influx was observed at 2×MIC
- PI influx [8]: increase in PI influx appeared to be independent of concentration
- PI staining in live-dead stain [9]: clear staining by PI
- solubility in PBS [10]: 108 µg/mL
- ALB (albumin) [11, 12]: 30 ± 3.3 g/L
- ALT (alanine transaminase) [11, 12]: 38.7 ± 4.1 U/L
- AST (aspartate aminotransferase) [11, 12]: 205 ± 50.7 U/L
- BUN (blood urea nitrogen) [11, 12]: 6.7 ± 0.3 mM
- CRE [11, 12]: 63.7 ± 10.1 µM
- GGT (gamma-glutamyl transferase) [11, 12]: 0.6 ± 0.1 U/L
- GLO (globulin) [11, 12]: 18.6 ± 1.5 g/L
- TBIL (total bilirubin) [11, 12]: 2.9 ± 0.5 µM
- TP (total protein) [11, 12]: 48.6 ± 1.9 g/L
- blood biomarker levels compared to saline-treated controls ([11]; 0.25 mg/kg, after 14 days): no significant difference
- H&E staining of the major organs ([11]; DM6P treated, 14 days post-treatment): did not reveal any abnormal signs

— patent US20260215432A1, “ANTIMICROBIAL CONJUGATED OLIGOELECTROLYTES AND METHODS THEREOF” (National University of Singapore, priority 2023, published 2026)
